# Test results from US12649722B2, “Herbicidal cinnoline derivatives” (SYNGENTA CROP PROTECTION AG, priority 2020, dated 2026).
# What was measured:
# Format in all cases: in vivo
# [1] = system: Amaranthus retoflexus (AMARE); assay: Pre-emergence Test, AMARE; conditions: 1000 g/ha, evaluated after 13 days
# [2] = system: Ipornoea hederacea (IPOHE); assay: Pre-emergence Test, IPOHE; conditions: 1000 g/ha, evaluated after 13 days
# [3] = system: Echinochloa crus-galli (ECHCG); assay: Pre-emergence Test, ECHCG; conditions: 1000 g/ha, evaluated after 13 days
# Setaria faberi (SETFA) [4] = assay: Pre-emergence Test, SETFA; conditions: 1000 g/ha, evaluated after 13 days
# ZEAMX [5] = assay: Pre-emergence Test, ZEAMX; conditions: 1000 g/ha, evaluated after 13 days
# ABUTH [6] = assay: Pre-emergence Test, ABUTH; conditions: 1000 g/ha, evaluated after 13 days
# [7] = system: Amaranthus retoflexus (AMARE); assay: Post-emergence Test, AMARE; conditions: sprayed after 8 days cultivation, 1000 g/ha, evaluated after 13 days
# Method: (§1) Seeds of a variety of test species are sown in standard soil in pots (Amaranthus retoflexus (AMARE), Solarium nigrum (SOLNI), Setaria faberi (SETFA), Lolium perenne (LOLPE), Echinochloa crus-galli (ECHCG), Ipornoea hederacea (IPOHE)). After 8 days cultivation under controlled conditions in a glasshouse (at 24° C./16° C., day/night; 14 hours light; 65% humidity), the plants are sprayed with an aqueous spray solution derived from the formulation of the technical active ingredient in acetone/water (50:50) solution containing 0.5% Tween 20 (polyoxyethylene sorbitan monolaurate, CAS RN 9005-64-5). Compounds are applied at 1000 g/ha unless otherwise stated. The test plants are then grown in a glasshouse under controlled conditions in a glasshouse (at 24° C./16° C., day/night; 14 hours light; 65% humidity) and watered twice daily. After 13 days the test is evaluated for the percentage damage caused to the plant. The biological activities are shown in the following table on a five-point scale (5=81-100%; 4=61-80%; 3=41-60%; 2=21-40%; 1=10-20%; 0=0%; −=not tested).
# [8] = system: Ipornoea hederacea (IPOHE); assay: Post-emergence Test, IPOHE; conditions: sprayed after 8 days cultivation, 1000 g/ha, evaluated after 13 days
# Method: as §1
# [9] = system: Echinochloa crus-galli (ECHCG); assay: Post-emergence Test, ECHCG; conditions: sprayed after 8 days cultivation, 1000 g/ha, evaluated after 13 days
# Method: as §1
# Setaria faberi (SETFA) [10] = assay: Post-emergence Test, SETFA; conditions: sprayed after 8 days cultivation, 1000 g/ha, evaluated after 13 days
# Method: as §1
# ZEAMX [11] = assay: Post-emergence Test, ZEAMX; conditions: sprayed after 8 days cultivation, 1000 g/ha, evaluated after 13 days
# Method: [The procedure below names another target; the source lists this target under the same test.] as §1
# ABUTH [12] = assay: Post-emergence Test, ABUTH; conditions: sprayed after 8 days cultivation, 1000 g/ha, evaluated after 13 days
# Method: [The procedure below names another target; the source lists this target under the same test.] as §1
structure (smiles),measurement,setting,value
"O=C(O)c1nn(-c2ccc(OC(F)(F)F)cc2)c2cccc(N3CCCCC3)c2c1=O [Compound P24, 4-oxo-5-(1-piperidyl)-1-[4-(trifluoromethoxy)phenyl] cinnoline-3-carboxylic acid]","percentage damage caused to the plant, AMARE",[1],0 (0=0%)
same,"percentage damage caused to the plant, IPOHE",[2],0 (0=0%)
same,"percentage damage caused to the plant, ECHCG",[3],1 (1=10-20%)
same,"percentage damage caused to the plant, SETFA",Setaria faberi (SETFA) [4],0 (0=0%)
same,"percentage damage caused to the plant, ZEAMX",ZEAMX [5],0 (0=0%)
same,"percentage damage caused to the plant, ABUTH",ABUTH [6],1 (1=10-20%)
same,"percentage damage caused to the plant, AMARE",[7],0 (0=0%)
same,"percentage damage caused to the plant, IPOHE",[8],0 (0=0%)
same,"percentage damage caused to the plant, ECHCG",[9],0 (0=0%)
same,"percentage damage caused to the plant, SETFA",Setaria faberi (SETFA) [10],0 (0=0%)
same,"percentage damage caused to the plant, ZEAMX",ZEAMX [11],0 (0=0%)
same,"percentage damage caused to the plant, ABUTH",ABUTH [12],1 (1=10-20%)
"C=C(OCC)c1cccc2c1c(=O)c(C(=O)OCC)nn2-c1ccc(OC(F)(F)F)cc1 [Compound P29, ethyl 5-(1-ethoxyvinyl)-4-oxo-1-[4-(trifluoromethoxy)phenyl] cinnoline-3-carboxylate]","percentage damage caused to the plant, AMARE",[1],1 (1=10-20%)
same,"percentage damage caused to the plant, IPOHE",[2],1 (1=10-20%)
same,"percentage damage caused to the plant, ECHCG",[3],4 (4=61-80%)
same,"percentage damage caused to the plant, SETFA",Setaria faberi (SETFA) [4],5 (5=81-100%)
same,"percentage damage caused to the plant, ZEAMX",ZEAMX [5],1 (1=10-20%)
same,"percentage damage caused to the plant, ABUTH",ABUTH [6],1 (1=10-20%)
same,"percentage damage caused to the plant, AMARE",[7],0 (0=0%)
same,"percentage damage caused to the plant, IPOHE",[8],0 (0=0%)
same,"percentage damage caused to the plant, ECHCG",[9],4 (4=61-80%)
same,"percentage damage caused to the plant, SETFA",Setaria faberi (SETFA) [10],3 (3=41-60%)
same,"percentage damage caused to the plant, ZEAMX",ZEAMX [11],2 (2=21-40%)
same,"percentage damage caused to the plant, ABUTH",ABUTH [12],1 (1=10-20%)
"CCOC(=O)c1nn(-c2ccc(OC(F)(F)F)cc2)c2cccc(/C(C)=N/O)c2c1=O [Compound P14, ethyl 5-[(E)-N-hydroxy-C-methyl-carbonimidoyl]-4-oxo-1-[4-(trifluoromethoxy)phenyl] cinnoline-3-carboxylate]","percentage damage caused to the plant, AMARE",[1],1 (1=10-20%)
same,"percentage damage caused to the plant, IPOHE",[2],0 (0=0%)
same,"percentage damage caused to the plant, ECHCG",[3],4 (4=61-80%)
same,"percentage damage caused to the plant, SETFA",Setaria faberi (SETFA) [4],4 (4=61-80%)
same,"percentage damage caused to the plant, ZEAMX",ZEAMX [5],2 (2=21-40%)
same,"percentage damage caused to the plant, ABUTH",ABUTH [6],1 (1=10-20%)
same,"percentage damage caused to the plant, AMARE",[7],2 (2=21-40%)
same,"percentage damage caused to the plant, IPOHE",[8],1 (1=10-20%)
same,"percentage damage caused to the plant, ECHCG",[9],4 (4=61-80%)
same,"percentage damage caused to the plant, SETFA",Setaria faberi (SETFA) [10],3 (3=41-60%)
same,"percentage damage caused to the plant, ZEAMX",ZEAMX [11],4 (4=61-80%)
same,"percentage damage caused to the plant, ABUTH",ABUTH [12],3 (3=41-60%)
"CCOC(=O)c1nn(-c2ccc(OC(F)(F)F)cc2)c2cccc(C#N)c2c1=O [Compound P38, ethyl 5-cyano-4-oxo-1-[4-(trifluoromethoxy)phenyl] cinnoline-3-carboxylate]","percentage damage caused to the plant, AMARE",[1],3 (3=41-60%)
same,"percentage damage caused to the plant, IPOHE",[2],1 (1=10-20%)
same,"percentage damage caused to the plant, ECHCG",[3],5 (5=81-100%)
same,"percentage damage caused to the plant, SETFA",Setaria faberi (SETFA) [4],5 (5=81-100%)
same,"percentage damage caused to the plant, ZEAMX",ZEAMX [5],2 (2=21-40%)
same,"percentage damage caused to the plant, ABUTH",ABUTH [6],0 (0=0%)
same,"percentage damage caused to the plant, AMARE",[7],3 (3=41-60%)
same,"percentage damage caused to the plant, IPOHE",[8],3 (3=41-60%)
same,"percentage damage caused to the plant, ECHCG",[9],5 (5=81-100%)
same,"percentage damage caused to the plant, SETFA",Setaria faberi (SETFA) [10],4 (4=61-80%)
same,"percentage damage caused to the plant, ZEAMX",ZEAMX [11],2 (2=21-40%)
same,"percentage damage caused to the plant, ABUTH",ABUTH [12],1 (1=10-20%)
